In patent US20250169500A1, “METHOD AND APPARATUS FOR CONTROLLING WEEDS BY POST-HARVEST TREATMENT OF WEED SEEDS” (BAYER CROPSCIENCE LP, priority 2022, published 2025):

System: Palmer Amaranth
Assay: Field treatment of crop residue material with diluted indaziflam suspension concentrate at soybean harvest; Palmer Amaranth infestation in the next growing season
Format: in vivo
Settings: about 1 g of indaziflam per hectare of spread crop residue material, applied at the expelling end of the seed pulverizer during harvest; assessed in the next growing season
Method: A crop of soybeans is grown infested with Palmer Amaranth. The soybean crop is grown to harvest and the Palmer amaranth is in the seed stage, just before seed drop. A combine harvester equipped with a follow-along seed pulverizer as described in WO 2009/100500 A is used to harvest the crop. The seed pulverizer is fitted with a liquid applicator at the expelling end to treat crop residue material expelled from the pulverizer with a diluted indaziflam suspension concentrate—before the expelled material touches the ground—such that the combine harvester-pulverizer deposits treated crop residue material such that the land so harvested is treated with about 1 g of indaziflam per hectare of spread crop residue material, without treating the land directly.
In the next growing season, another soybean crop has less than 10% of the volume of Palmer Amaranth compared to the present soybean harvest.

## Cc1ccc2c(c1)[C@H](Nc1nc(N)nc(C(C)F)n1)[C@@H](C)C2 (mixture of isomers) [indaziflam, 2-N-[(1R,2S)-2,3-dihydro-2,6-dimethyl-1H-inden-1-yl]-6-[(1RS)-1-fluoroethyl]-1,3,5-triazine-2,4-diamine]
  volume of Palmer Amaranth in next season's soybean crop compared to the present soybean harvest: less than 10%
